# Tests used:
# ovariectomated rats [1] = experiment: Oral estrogenic effects: uterus weights in ovariectomated rats; type: in vivo, rat
# Text: (§1) The laboratory animals, adult female rats (breeder: HSD/WIN:WU) were ovariectomated on day 14. Treatment started two weeks later by a single oral application per day of the respective test substance. The dosages given for esters refer to the steroid portion of the substances. The tests were made in three groups (A, B, C) at various points in time. This is why there is a deviation in control group values. The tests of series A, B, and C can therefore be compared among each other if the values for the respective control groups are taken into account.
# (§2) The procedure of allocating animals to groups was randomized. The experiment was carried out as a block test. The animals were weighed at the beginning and at the end of the experiment.
# (§3) The start of treatment was defined as day 1 (=d1), treatment was finished on day 7 (=d7); the animals were killed on day 8, various organs (uteri, adrenal glands, liver) were removed, weighed and deep-frozen (−196° C.) for further examination.
# ovariectomated rats [2] = experiment: Oral estrogenic effects: weights of adrenal glands in ovariectomated rats; type: in vivo, rat
# Text: as §1, §2, §3
# ovariectomated rats [3] = experiment: Oral estrogen treatment: serum IGF1 (somatomedin C), RIA; type: in vivo, rat; parameters: unit not given here; conditions: Experiment A
# Text: as §1, §2, §3
# (§4) Blood was taken from the retrobulbar plexus under ether anaesthesia prior to treatment (d0), and on (d4) and (d8). IGF1, angiotensin I, cholesterol and HDL cholesterol were determined in the serum obtained.
# IGF1: RIA by bioMérieux Co.;
# ovariectomated rats [4] = experiment: Hepatic parameters: serum angiotensin I, modified RIA for renin activity; type: in vivo, rat; parameters: Angiotensin I: unit not given here; conditions: for Angiotensin I: Experiment A
# Text: as §1, §2, §3, §4
# angiotensin: modified RIA for renin activity by Sorin Co.
# ovariectomated rats [5] = experiment: Hepatic parameters: total cholesterol levels in serum, enzymatic test; type: in vivo, rat; conditions: all doses
# Method: The laboratory animals, adult female rats (breeder: HSD/WIN:WU) were ovariectomated on day 14. Treatment started two weeks later by a single oral application per day of the respective test substance. The dosages given for esters refer to the steroid portion of the substances. The tests were made in three groups (A, B, C) at various points in time.
# as §2, §3, §4
# (§5) cholesterol/HDL: enzymatic tests, photometric determination, reagents by Dr Bruno Lange GmbH.
# ovariectomated rats [6] = experiment: Hepatic parameters: HDL cholesterol levels in serum, enzymatic test; type: in vivo, rat; conditions: Experiment A
# Text: as §1, §2, §3, §4, §5
# [7] = Experiment C, 10 μg/animal/day p.o. d1-d7
# [8] = Experiment B, 10 μg/animal/day p.o. d1-d7
# [9] = Experiment A, 0.1 μg/animal/day p.o. d1-d7
# [10] = Experiment A, 1 μg/animal/day p.o. d1-d7
# [11] = Experiment A, 10 μg/animal/day p.o. d1-d7
# [12] = Experiment A, 100 μg/animal/day p.o. d1-d7
# [13] = day 4, 0.1 μg/animal/day p.o. d1-d7
# [14] = day 4, 1 μg/animal/day p.o. d1-d7
# [15] = day 4, 10 μg/animal/day p.o. d1-d7
# [16] = day 4, 100 μg/animal/day p.o. d1-d7
# [17] = day 8, 0.1 μg/animal/day p.o. d1-d7
# [18] = day 8, 1 μg/animal/day p.o. d1-d7
# [19] = day 8, 10 μg/animal/day p.o. d1-d7
# [20] = day 8, 100 μg/animal/day p.o. d1-d7
structure (smiles),measurement,setting,value
"C[C@]12CC[C@@H]3c4ccc(O)cc4CC[C@H]3[C@@H]1C[C@@H](O)[C@@H]2O [Example E3, estratriol]",Uterus weights (mean value),ovariectomated rats [1]; [7],301.94 mg
same,Weights of adrenal glands (mean value),ovariectomated rats [2]; [7],52.2 mg
"CN(C)S(=O)(=O)Oc1ccc2c(c1)CC[C@@H]1[C@@H]2CC[C@]2(C)[C@@H](O)[C@H](O)C[C@@H]12 [J 989, 16α,17β-Dihydroxy-estra-1,3,5(10)-trien-3-yl N,N-dimethyl-sulfamate]",Uterus weights (mean value),ovariectomated rats [1]; [7],182.79 mg
same,Weights of adrenal glands (mean value),ovariectomated rats [2]; [7],52.8 mg
same,melting point,,180 to 181 °C
"C#CC1(O)CCC2C3CCc4cc(OS(=O)(=O)N5CCCC5)ccc4C3CCC21C (stereo not drawn) [J 272, 17β-Hydroxy-19-nor-17α-pregna-1,3,5(10)-trien-20-in-3-yl N,N-pyrrolidinosulfonate]",Uterus weights (mean value),ovariectomated rats [1]; [8],620.7 mg
same,Weights of adrenal glands (mean value),ovariectomated rats [2]; [8],57.5 mg
"CCN(CC)S(=O)(=O)Oc1ccc2c(c1)CC[C@@H]1[C@@H]2CC[C@]2(C)[C@@H](O)CC[C@@H]12 [J 981, 17β-Hydroxy-estra-1,3,5(10)-trien-3-yl N,N-diethyl-sulfamate]",Uterus weights (mean value),ovariectomated rats [1]; [8],225.34 mg
same,Weights of adrenal glands (mean value),ovariectomated rats [2]; [8],50.5 mg
same,melting point,,175 to 176 °C
"CN(C)S(=O)(=O)Oc1ccc2c(c1)CC[C@@H]1[C@@H]2CC[C@]2(C)[C@@H](O)C[C@@H]3C[C@]312 [J 982, 17β-Hydroxy-14α,15α-methylen-estra-1,3,5(10)-trien-3-yl N,N-dimethyl-sulfamate]",Uterus weights (mean value),ovariectomated rats [1]; [8],193.4 mg
same,Weights of adrenal glands (mean value),ovariectomated rats [2]; [8],55.3 mg
"C[C@]12CC[C@@H]3c4ccc(O)cc4CC[C@H]3[C@@H]1CC[C@@H]2O [Example E2, estradiol]",Uterus weights (mean value),ovariectomated rats [1]; [9],123.3 mg
same,Uterus weights (mean value),ovariectomated rats [1]; [10],128.9 mg
same,Uterus weights (mean value),ovariectomated rats [1]; [11],130.7 mg
same,Uterus weights (mean value),ovariectomated rats [1]; [12],285.4 mg
same,Uterus weights (mean value),ovariectomated rats [1]; [8],182.3 mg
same,Weights of adrenal glands (mean value),ovariectomated rats [2]; [9],49.3 mg
same,Weights of adrenal glands (mean value),ovariectomated rats [2]; [10],57.9 mg
same,Weights of adrenal glands (mean value),ovariectomated rats [2]; [11],61.6 mg
same,Weights of adrenal glands (mean value),ovariectomated rats [2]; [12],54.4 mg
same,Weights of adrenal glands (mean value),ovariectomated rats [2]; [8],54.4 mg
same,IGF1 (= somatomedin C),"ovariectomated rats [3]; 100 μg/animal/day p.o. d1-d7, d 0 (prior to treatment)",717.4 ± 80.8
same,IGF1 (= somatomedin C),"ovariectomated rats [3]; 100 μg/animal/day p.o. d1-d7, d 4",623.6 ± 100.0
same,IGF1 (= somatomedin C),"ovariectomated rats [3]; 100 μg/animal/day p.o. d1-d7, d 8",601.1 ± 108.8
same,Angiotensin I,ovariectomated rats [4]; [13],376.2 ± 48.3
same,Angiotensin I,ovariectomated rats [4]; [14],359.8 ± 53.4
same,Angiotensin I,ovariectomated rats [4]; [15],412.8 ± 66.6
same,Angiotensin I,ovariectomated rats [4]; [16],497.7 ± 69.0
same,Angiotensin I,ovariectomated rats [4]; [17],449.5 ± 55.1
same,Angiotensin I,ovariectomated rats [4]; [18],392.9 ± 32.0
same,Angiotensin I,ovariectomated rats [4]; [19],335.5 ± 24.9
same,Angiotensin I,ovariectomated rats [4]; [20],464.3 ± 16.7
same,"Effect on angiotensin I (AI) values, in words",ovariectomated rats [4]; at any dose throughout the experiment,no recognizable effect
same,"Influence on the angiotensin I level, summary in words",ovariectomated rats [4]; dose-action relationships on days 4 and 8,at best has marginal stimulating influence
same,"Effect on cholesterol levels in the blood (total and HDL), in words",ovariectomated rats [5],did not reduce cholesterol levels in the blood
same,HDL cholesterol levels (mean value ± standard deviation),ovariectomated rats [6]; [13],49.1 ± 7.8 mg/dL
same,HDL cholesterol levels (mean value ± standard deviation),ovariectomated rats [6]; [14],50.9 ± 6.1 mg/dL
same,HDL cholesterol levels (mean value ± standard deviation),ovariectomated rats [6]; [15],55.0 ± 6.9 mg/dL
same,HDL cholesterol levels (mean value ± standard deviation),ovariectomated rats [6]; [16],43.7 ± 7.6 mg/dL
same,HDL cholesterol levels (mean value ± standard deviation),ovariectomated rats [6]; [17],51.0 ± 4.6 mg/dL
same,HDL cholesterol levels (mean value ± standard deviation),ovariectomated rats [6]; [18],52.3 ± 4.1 mg/dL
same,HDL cholesterol levels (mean value ± standard deviation),ovariectomated rats [6]; [19],51.5 ± 3.9 mg/dL
same,HDL cholesterol levels (mean value ± standard deviation),ovariectomated rats [6]; [20],46.0 ± 9.2 mg/dL

# Reference: patent publication US6841548B2, “Pharmaceutical preparations containing estra-1,3,5(10)-triene derivatives” (Schering AG, priority 1994, dated 2005)
